These results are taken from article PMC4999056 (European Journal of Medicinal Chemistry, 2016).

Data set [1] has as its system DENV (serotype 2). The experiment in a line: microbe, parasite or virus in culture. The conditions noted are these: for EC50: Dengue virus, Vero B, read-out: Dengue EC50. Format: cell-based, Dengue virus serotype 2.
Data set [2] in a line: in vitro.
For data set [3], the system named is YFV. The experiment in a line: microbe, parasite or virus in culture. Format: cell-based, yellow fever virus. The conditions noted are these: for EC50: Yellow fever virus, Vero B, read-out: Yellow fever EC50.
Data set [4] in a line: in vitro. As to conditions: chlorocebus aethiops, Yellow fever CC50.

Structures are written as SMILES.

For orientation: EC50 means the concentration that produces a half-maximal response. As for `Cc1ccc(NC(=O)c2nccnc2C(=O)Nc2ccc(F)cc2)c(-c2cc(C)n[nH]2)c1` [6a, N^2-(4-fluorophenyl)-N^3-(4-methyl-2-(3-methyl-1H-pyrazol-5-yl)phenyl) pyrazine-2,3 dicarboxamide], in data set [1], the “Dengue SI” value is recorded as over 4, the “fold reduction in inhibitory properties against dengue virus” value was found to be 10 fold and the EC50 is 26.5 µM. Further, the CC50 in data set [2] (chlorocebus aethiops) is over 116 µM.
As for `Cc1ccc(NC(=O)c2nccnc2C(=O)Nc2ccc(C)cc2-c2cc(C)n[nH]2)cc1` [6b, N^2-(4-methyl-2-(3-methyl-1H-pyrazol-5-yl)phenyl)-N^3-(p-tolyl)pyrazine-2,3-dicarboxamide], in data set [1], the “Dengue SI” value is recorded as over 235, the “fold increase of DENV inhibitory properties” value was determined as 50 fold and the concentration giving a half-maximal response (EC50) was 0.5 µM. The same compound returned a CC50 in data set [2] (chlorocebus aethiops) of over 117 µM. The compound also gave a CC50 in data set [2] (green monkey) of over 116 µM.
Turning to `Cc1ccc(NC(=O)c2nccnc2C(=O)Nc2ccc(F)cc2)c(-c2cccs2)c1` [6c, N^2-(4-fluorophenyl)-N^3-(4-methyl-2-(thiophen-2-yl)phenyl)pyrazine-2,3-dicarboxamide], the concentration for a half-maximal effect (EC50) in data set [3] was 23 µM; in data set [1] it was 4.6 µM. For the same compound, in data set [1], the “Dengue SI” value is on record as over 25. The CC50 in data set [2] (chlorocebus aethiops) and in data set [4] was over 116 µM each time.
Consider `Cc1ccc(NC(=O)c2nccnc2C(=O)Nc2ccc(C)cc2-c2cccs2)cc1` [6d, N^2-(4-methyl-2-(thiophen-2-yl)phenyl)-N^3-(p-tolyl)pyrazine-2,3-dicarboxamide], for which, in data set [1], the “Dengue SI” value is recorded as over 235, the “fold increase in DENV activity for the methyl congener” value worked out at 10 fold and the concentration giving a half-maximal response (EC50) was found to be 0.5 µM. Also, the CC50 in data set [2] (chlorocebus aethiops) is over 117 µM. In data set [2] (green monkey), the CC50 was over 116 µM.
With `Cc1ccc(NC(=O)c2nccnc2C(=O)Nc2ccc(F)cc2)c(-c2ccc(C)s2)c1` [6e, N^2-(4-fluorophenyl)-N^3-(4-methyl-2-(5-methylthiophen-2-yl)phenyl)pyrazine-2,3-dicarboxamide], in data set [1], the “Dengue EC50” value is “complete loss of DENV inhibitory activity”, the “Dengue SI” value was 1 and the EC50 is over 112 µM. Also, the CC50 in data set [2] (chlorocebus aethiops) is over 112 µM.
For `Cc1ccc(NC(=O)c2nccnc2C(=O)Nc2ccc(C)cc2-c2ccc(C)s2)cc1` [6f, N^2-(4-methyl-2-(5-methylthiophen-2-yl)phenyl)-N^3-(p-tolyl)pyrazine-2,3-dicarboxamide], in data set [1], the “Dengue EC50” value is “complete loss of DENV inhibitory activity”, the “Dengue SI” value is recorded as 1 and the EC50 is over 113 µM. The compound also registered a CC50 in data set [2] (chlorocebus aethiops) of over 113 µM.
For `Cc1ccc(NC(=O)c2nccnc2C(=O)Nc2ccc(F)cc2)c(-c2ccsc2)c1` [6g, N^2-(4-fluorophenyl)-N^3-(4-methyl-2-(thiophen-3-yl)phenyl)pyrazine-2,3-dicarboxamide], in data set [3], the “Yellow fever SI” value is reported as over 11 and the concentration giving a half-maximal response (EC50) stood at 10.6 µM. Also, in data set [1], the “Dengue SI” value is over 55 and the EC50 was determined as 2.1 µM. Further, the CC50 in data set [2] (chlorocebus aethiops) is over 116 µM. This compound had a CC50 in data set [4] of over 116 µM.
Regarding `Cc1ccc(NC(=O)c2ccccc2C(=O)Nc2ccc(F)cc2)c(-c2cc(C)n[nH]2)c1` [7a, N^1-(4-fluorophenyl)-N^2-(4-methyl-2-(3-methyl-1H-pyrazol-5-yl)phenyl)phthal-amide], in data set [1], the “Dengue SI” value is on record as over 235, the “fold more inhibitory against dengue virus” value is recorded as 5 fold and the EC50 stood at 0.5 µM. For the same compound, in data set [2] (chlorocebus aethiops), the CC50 was over 117 µM.
For `Cc1ccc(NC(=O)c2ccccc2C(=O)Nc2ccc(C)cc2-c2cc(C)n[nH]2)cc1` [7c, N^1-(4-methyl-2-(3-methyl-1H-pyrazol-5-yl)phenyl)-N^2-(p-tolyl)phthalamide], in data set [1], the “Dengue SI” value was over 4, the “fold loss in DENV inhibitory activity” value stood at 60 fold and the EC50 came out at 29 µM. The compound further displayed a CC50 in data set [2] (chlorocebus aethiops) of over 117 µM.
With `Cc1ccc(NC(=O)c2nc[nH]c2C(=O)Nc2ccc(F)cc2)c(-c2cc(C)n[nH]2)c1` [compound 1], the figures for the EC50 in data set [3] and in data set [1] were 3.5 µM and 2.5 µM, respectively.
